According to patent publication US6759403B2, “Metalloporphyrins and their uses as radiosensitizers for radiation therapy” (Brookhaven Science Associates, LLC, priority 2001, dated 2004):

Assays:
EMT-6 mammary carcinomas = test: Biodistribution study of CuTCPBr in mice with EMT-6 mammary carcinomas on the back (Example 5); type: in vivo, BALB/c mice; conditions: for Boron Concentration, Tumor / Boron Concentration, Blood / Boron Concentration, Brain / Boron Concentration, Ears (skin) / Boron Concentration, Liver / Boron Concentration, Spleen / Boron Concentration, Tongue: 6 ip injections over 2 days
Method: Two groups of seven (7) BALB/c mice bearing EMT-6 mammary carcinomas on the back were given CuTCPBr at a dose of 432 μg/g body weight (94 μg B/gbw) in six intraperitoneal injections over two days. Two days after the last injection, the mice in one group were euthanized and the boron concentrations in various tissues were measured. Four days after the last injection, the same procedure was carried out on the second group of mice. The average boron concentrations (mean with standard deviation in parentheses) for the two groups of mice injected with CuTCPBr are listed in the second and third columns of Table 4.
The tumor to blood boron concentration ratio after two days was approximately 8:1 and after four days it increased to 232:1. The tumor to brain boron concentration ratio after two days was approximately 197:1 and after four days it increased to 225:1.

EMT-6 mammary tumors = test: Radiosensitizer study: tumor control with 100 kVp x-irradiation (Example 8); type: in vivo, BALB/c mice; conditions: for % tumor control: 89 days observation
Description: In this example, female BALB/c mice (Taconic Farms, Germantown, N.Y.) (20-25 g) were used in radiotherapy studies to compare tumor control effects in mice bearing EMT-6 mammary tumors. The EMT-6 leg tumors were formed by mincing freshly removed tumor tissue from mice into fragments no larger than 0.5 mm. The fragments were mixed in a saline solution and implanted subcutaneously (sc) in the legs of mice using an 18-gauge trocar. Tumor fragments were used because in this particular location tumors initiated by cell suspensions tend to spread in a thin subcutaneous layer and invade the subjacent muscle. Using tumor fragments, the tumors are palpable, but thinner on the leg than on the dorsal thorax. In late stage, fragment-initiated tumors can invade muscle tissue but not as frequently as do suspension-initiated tumors.
At approximately seven days after tumor implantation, the mice were stratified by tumor volume into six (6) matched experimental groups, which included five groups of twelve (12) mice each and a control group of thirty-three (33). Two groups were treated with ≈400 μg/g body weight CuTCPBr and given two doses of 100 kVp x-irradiation x-rays, two groups were treated with only two doses of 100 kVp x-irradiation, one group received CuTCPBr and were euthanized the day of irradiation. The function of the group which was immediately euthanized was to determine the boron concentration in tissues at the time of irradiation. It was not a control group upon which the effectiveness of treatment was compared. The control group of thirty-three mice was not treated at all.
In all treated groups, single-exposure irradiations were used. For the irradiation procedures, mice were anesthetized with sodium pentobarbital (≈60 μg/gbw i.p.). Each mouse was anesthetized and positioned behind a 1-cm thick lead shield with the tumor-bearing leg extended across a 2-cm aperture in the lead shield in a manner similar to that used in thermal beam irradiation. […]
Tumor volumes ranged from approximately 20-170 mm^3 in each of the five groups of treated mice. Tumor dimensions were measured 2-3 times per week and mice were euthanized either when calculated tumor volumes (x^2y/2, where x is the shorter surface dimension) exceeded 500 mm^3 or when skin ulceration was observed. Mice were weighed when the tumors were measured, except during the first week, when they were weighed daily. […]
Mice were euthanized at various time points due to tumor overgrowth. The effectiveness of the treatments was measured by the “% tumor control.” The % tumor control is defined as the number of mice whose tumors were “cured” divided by the total number of mice in a particular dose group. […]

[1] = CuTCPBr 432 μg/g body weight, after 2 days
[2] = CuTCPBr 432 μg/g body weight, after 4 days

copper octabromotetracarboranylphenylporphyrin [CuTCPBr]
Boron Concentration, Tumor (EMT-6 mammary carcinomas; CuTCPBr 432 μg/g body weight (94 μg B/gbw), after 2 days): 256 (51) μg/g
Boron Concentration, Blood (EMT-6 mammary carcinomas; [1]): 30 (12) μg/g
Boron Concentration, Brain (EMT-6 mammary carcinomas; [1]): 1.3 (0.4) μg/g
Boron Concentration, Ears (skin) (EMT-6 mammary carcinomas; [1]): 16 (4.3) μg/g
Boron Concentration, Liver (EMT-6 mammary carcinomas; [1]): 831 (102) μg/g
Boron Concentration, Spleen (EMT-6 mammary carcinomas; [1]): 507 (60) μg/g
Boron Concentration, Tongue (EMT-6 mammary carcinomas; [1]): 43 (4.1) μg/g
Boron Concentration, Blood (EMT-6 mammary carcinomas; [2]): 0.8 (0.2) μg/g
Boron Concentration, Brain (EMT-6 mammary carcinomas; [2]): 0.7 (0.1) μg/g
Boron Concentration, Ears (skin) (EMT-6 mammary carcinomas; [2]): 12 (1.6) μg/g
Boron Concentration, Liver (EMT-6 mammary carcinomas; [2]): 592 (24) μg/g
Boron Concentration, Spleen (EMT-6 mammary carcinomas; [2]): 336 (40) μg/g
Boron Concentration, Tongue (EMT-6 mammary carcinomas; [2]): 37 (4.0) μg/g
Boron Concentration, Tumor (EMT-6 mammary carcinomas; [2]): 180 (27) μg/g
decrease of liver boron from two to four days (EMT-6 mammary carcinomas; CuTCPBr 432 μg/g body weight, indicates faster clearance time): 29%
dose modification factor (EMT-6 mammary tumors; CuTCPBr in combination with x-irradiation): > 1.5
radiosensitizing effect (EMT-6 mammary tumors; single dose x-irradiation in the presence of CuTCPBr): clear radiosensitizing effect
% tumor control (EMT-6 mammary tumors; ≈400 μg/g CuTCPBr plus single-dose 25 Gy 100 kVp x-rays, x-rays alone 25.0%): 41.7%
% tumor control (EMT-6 mammary tumors; ≈400 μg/g CuTCPBr plus single-dose 35 Gy 100 kVp x-rays, x-rays alone 33.3%): 66.7%
